In patent US9801404B2, “IGF-1 production-promoting agent” (MORINAGA MILK INDUSTRY CO., LTD., priority 2012, dated 2017):
Values joined by “and” are separate entries in the source; they are usually repeats but may differ in a detail not shown here. Identical values can stand only once.

Experiments:
[1] = test system: IGF-1 mRNA in gastrocnemius; experiment: Expression of IGF-1 mRNA in gastrocnemius at recovery from tail-suspension muscular atrophy; type: in vivo, C57BL/6J mice; conditions: mice after tail suspension; feed with 0.07 mass % nobiletin for 3 days
From the text: (§1) Male C57BL/6J mice (10-week old) were preliminarily bred for one week, and divided into six groups (control group (Cont), standard feed administration after tail suspension group (Fix), Citrus depressa extract administration after tail suspension group (Fix+SE), polymethoxyflavonoid administration after tail suspension group (Fix+PMF), nobiletin administration after tail suspension group (Fix+NOB), and tangeretin administration after tail suspension group (Fix+TAN), n=8 for the Cont, Fix, Fix+SE, Fix+PMF, Fix+NOB, and Fix+TAN groups).
(§2) After the preliminary breeding, muscular atrophy was induced in the mice of the Fix and Fix+SE groups by tail suspension for two weeks. […]
On day 4 after the change of the feed, the mice were dissected, and the serum IGF-1 concentration, expression of follistatin mRNA in the gastrocnemius, expression of IGF-1 mRNA in the gastrocnemius, and phosphorylation ratio (β+γ) of p70S6K1 in the gastrocnemius were evaluated.
(§3) The serum IGF-1 concentration was measured in the same manner as that used in Example 1. The expression of follistatin mRNA in the gastrocnemius was measured in the same manner as that used in Example 1, except that the hind leg gastrocnemius was extracted from each […], and Assay ID Mm00514982_ml (Applied Biosystems) was used as the primer. […]

p70S6K1 = experiment: Phosphorylation ratio of p70S6K1 in gastrocnemius at recovery from tail-suspension muscular atrophy; type: in vivo, C57BL/6J mice; conditions: mice after tail suspension; feed with 0.04 mass % tangeretin for 3 days
From the text: as §1, §2
On day 4 after the change of the feed, the mice were dissected, and the serum IGF-1 concentration, expression of follistatin mRNA in the gastrocnemius, expression of IGF-1 mRNA in the gastrocnemius, and phosphorylation ratio (β+γ) of p70S6K1 in the gastrocnemius were evaluated. […]
as §3

| SMILES | Expression of IGF-1 mRNA in gastrocnemius (AU) [1] | Expression of IGF-1 mRNA in gastrocnemius, Fix+NOB group compared with the Fix group [1] [%] | Phosphorylation ratio of p70S6K1, Fix+TAN group compared with the Fix group (p70S6K1) [%] | Phosphorylation ratio of p70S6K1 in gastrocnemius (β + γ) (%) (p70S6K1) |
| --- | --- | --- | --- | --- |
| COc1ccc(-c2cc(=O)c3c(OC)c(OC)c(OC)c(OC)c3o2)cc1OC [NOB, nobiletin] | 1.75±0.40 AU and 1.75 AU | 107 | – | – |
| COc1ccc(-c2cc(=O)c3c(OC)c(OC)c(OC)c(OC)c3o2)cc1 [TAN, tangeretin] | – | – | 112 | 47.8±11.8% and 47.8% |
